From patent US20080248008A1, “Inhibitors of Protein Kinase a Anchoring” (priority 2004, published 2008)
“Also recorded” adds a separate entry of the source.

How the values were obtained:
[1] = biological target: T1, RI(Δ1-24) (Bos taurus, UniProt P00514); test: Co-precipitation with recombinant RI(Δ1-24) added to HEK293 lysate; type: binding; conditions: recombinant protein added to cell lysate
T1 construct: made in house; host or cells: E. coli BL21 (B121 [sic])
Excerpt: Constructs and mutagenesis. Oligonucleotides with the following sequences were directionally cloned into EGFP-C (Clonetech) vector via TOPO blunt vector (Invitrogen) by using SalI and BamHI sites. MEME3(+), 5′-GTC GAC-CTGGAGCAGTACGCCAACCAGCTGGCCGACCAGATCATCAAGGAGGCCACCGAG-GGA TCC-3′; MEME3 (−), 5′-GGA TCC-CTCGGTGGCCTCCTTGATGATCTGGTCGGCCAGCTGGTTGGCGTACTGCTCCAG-GTC GAC-3′; Scramble (+), 5′-GTCGACATCGAGAAGGAGCTGGCCCAGCAGTACCAGAACGCCGACGCCATCACCCTGGAGGGATCC-3′; and Scramble (−), 5′-GGATCCCTCCAGGGTGATGGCGTCGGCGTTCTGGTACTGCTGGGCCAGCTCCTTCTCGATGTCGAC-3′. The site specific mutation, A98S, was made in RI wild type cloned into pRSETB (Invitrogen) using a site specific-mutagenesis kit (Stratagene). RI( 1-11), RI(Δ1-15) and RI(Δ1-24) mutants were made by PCR and re-cloned into pRSETB (Invitrogen). All constructs were confirmed by sequencing.
HEK293 cells at […] were transfected with ten μg of plasmid DNA (GFP, GFP-MEME3 or GFP-Scrambled MEME3) by using the CaCl2 method. […]
In FIG. 4D, the co-precipitation of recombinant full length and N-truncated RI (added to the cell lysate) with MEME3 was detected by immunoblotting using a monoclonal antibody against RI (lane 2-4).

[2] = system: human peripheral blood T cells; test: IL-2 production assay in T cells (ELISA); type: cell-based
Method: IL-2 production. T cells were cultured and activated by 10 or 50 μM Sp-8-Br-cAMPs (a cAMP agonist) for 15 minutes before the T cells were activated by anti-CD3/anti-CD28 beads (Dynal) for 20 hours. Cell free supernatants were harvested and stored at −80° C. until analsysed. The IL-2 levels were determined by Elisa (R & D Systems, Europe Ltd., UK):
IL-2 production Assay. Primary T cells were stimulated or not with anti-CD3/anti-CD28 coated beads (Dynal, cat. no. 111.31) for 20 hours, thereafter supernatants were harvested and the concentration of IL-2 was assessed by ELISA (R&D Systems, cat. no D2050). When used, 8-CPT-cAMP was added for 15 minutes before CD3/CD28 treatment.
To examine the effect of MEME3 on cytokine production, IL-2 levels in medium from human peripheral blood T cells treated with MEME3-Arg11 were measured by ELISA. First, cells were treated with MEME3-Arg11 for 12 hours, thereafter the PKA inhibitory pathway was activated by 10 or 50 μM Sp-8-Br-cAMPs (a cAMP agonist) for 15 minutes before the T cells were activated by CD3/CD28 stimulation (FIG. 21).

[3] = biological target: PKA-RIα (Homo sapiens, UniProt P10644); test: Immunofluorescence of PKA-RIα localisation in human T cells; type: cell-based; set-up: endogenous in cells; host or cells: human peripheral blood CD3+ T cells; conditions: 5 μM
Method: Immunofluorescence analysis of cells was performed as previously described (Collas, P. et al., 1996, J. Cell Biol. 135, 1715-1725). RI was detected by using an anti-RI monoclonal antibody (Transduction Laboratories) as a primary antibody at a […] and Alexa-488 as a secondary antibody (1:600, Goat anti Mouse IgGs, Molecular Probes). Immunofluorescence was performed on Y1 cells attached to collagen/fibronectin coated coverslips. Mitochondria were stained using MitoTracker Red CMXRos (Molecular Probes) in fresh medium with incubation at 37° C. for 30 min prior to cell fixation. All cells were washed in PBS, fixed with 3% paraformaldehyde and permeabilised using 0.1% Triton X-100. Proteins were blocked in 2% BSA/PBST prior to antibody labeling. Primary and secondary antibodies were used at a 1:200 dilution in BSA/PBST and incubated for 30 min. DNA was counterstained using TO-PRO 3 (Molecular Probes) at a concentration of 1 μM. […] Alternatively, fluorescently labeled cells were examined using a Leica TCS SP1 confocal fluorescence microscope (Leica, Heidelberg, Germany) equipped with an Ar (488 nm) and two He/Ne (543 and 633 nm) laser lines. […]
Isolated human peripheral blood T cells were treated with MEME3-Arg11 peptide at different concentrations, and the location of PKARIα determined by immunofluorescence.

T1 sequence (P00514 25-380, stated change not applied): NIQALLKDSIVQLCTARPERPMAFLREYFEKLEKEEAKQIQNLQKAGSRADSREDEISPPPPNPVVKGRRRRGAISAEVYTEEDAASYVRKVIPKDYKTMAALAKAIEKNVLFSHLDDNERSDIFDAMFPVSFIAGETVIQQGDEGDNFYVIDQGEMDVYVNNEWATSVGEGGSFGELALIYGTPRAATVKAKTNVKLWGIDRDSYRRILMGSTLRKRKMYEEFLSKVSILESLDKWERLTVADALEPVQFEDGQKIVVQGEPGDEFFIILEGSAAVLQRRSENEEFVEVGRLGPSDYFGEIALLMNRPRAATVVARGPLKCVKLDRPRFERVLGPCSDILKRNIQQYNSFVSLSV

Row | Compound | co-precipitation with RI(Δ1-24) [1] | increase in IL-2 production ([2]; 10 μM, relative to untreated T cells) | IL-2 levels ([2]; 12 hours peptide, Sp-8-Br-cAMPs, CD3/CD28 stimulation) | displacement of RI from T cell membranes / cell periphery [3]
1 | CC[C@H](C)[C@H](NC(=O)[C@H](CCC(N)=O)NC(=O)[C@H](CC(=O)O)NC(=O)[C@H](C)NC(=O)[C@H](CC(C)C)NC(=O)[C@H](CCC(N)=O)NC(=O)[C@H](CC(N)=O)NC(=O)[C@H](C)NC(=O)[C@H](Cc1ccc(O)cc1)NC(=O)[C@H](CCC(N)=O)NC(=O)[C@H](CCC(=O)O)NC(=O)[C@@H](N)CC(C)C)C(=O)N[C@H](C(=O)N[C@@H](CCCCN)C(=O)N[C@@H](CCC(=O)O)C(=O)N[C@@H](C)C(=O)N[C@H](C(=O)N[C@@H](CCC(=O)O)C(=O)N[C@@H](CCCCNC(=O)c1ccc2c(c1)C(=O)OC21c2ccc(O)cc2Oc2cc(O)ccc21)C(N)=O)[C@@H](C)O)[C@@H](C)CC [MEME3] | did not precipitate MEME3 | – | – | –
2 | LEQYANQLADQIIKEATERRRRRRRRRrr [MEME3-Arg11] | – | 2.5 fold | increased in samples treated with MEME3-Arg11 in a concentration-dependent manner | Displacement of RI from T cell membranes was observed; also recorded: displaced and delocalized
